pIC50, pKd: −log10 of the molar value.
Assays:
[1] = system: U937 human histiocytic leukemia cell line; assay: Cellular assay: inhibition of TSQ induced necroptosis (CellTitre-Glo); settings: Homo sapiens, U-937; U937 cells, TSQ cocktail, 48 hours, Table 38; read-out: Inhibition of TSQ-induced necroptosis (IC50 cell-based assay)
Description: […] ASSAY: Screening compounds for inhibition of TSQ induced necroptosis, 384 well plate format.
Cell Line ID: U937 human histiocytic leukemia cell line.
Cell Concentration (cells/well): Final cell density is 20,000 cells per well.
Cell growth medium: HT-RPMI medium+7.4% Fetal Bovine Serum (FBS). Cells are cultured in Corning 150 cm^z tissue culture flasks with vented caps at 37° C./5% CO2.
Incubation: Plates were incubated at 37° C./5% CO2 in a humidified incubator for 48 hours following addition of compounds and death stimuli (TSQ cocktail).
Compound concentration: 36 μM starting concentration, 1:3 dilution, 10 point
DMSO final concentration (% v/v): 0.3%.
Compounds in TSQ cocktail (T: TNF; S: Smac mimetic; Q: Q-VD-OPh) and their final concentrations: • hTNF-Fc (100 ng/ml)—produced by standard procedures as shown in Bossen et al., J Biol Chem, 2006, 281(20), 13964-13971. • Compound A (500 nM)—Smac mimetic, Tetralogic and SYNthesis med chem • Q-VD-OPh (10 μM)—MP Biomedicals
The cellular assay was carried out according to the following steps: • 1. Each well was prepared by sequential addition of: • a. DMSO (control; columns 1-2 and 23-24) or compound in DMSO—addition was performed using acoustic transfer of nl volumes of stock compound to give final test concentrations of 36, 12, 4, 1.3, 0.44, 0.148, 0.049, 0.016, 0.005 and 0.002 μM. All wells were backfilled with DMSO to a final total volume in the well of 100 nl. • b. Following compound/DMSO addition in step (a), 40 μL of cell suspension (5×10^5 cells/mL) was added to provide a final cell concentration of 20,000 cells per well, and • c. Following cell addition in step (b), 10 μL of 5×TSQ cocktail (except to positive controls; […]) was added to each well. • 2. After 48 hours, plate was removed from the 37° C. incubator and equilibrated to room temperature for 45 minutes. • 3. 15 μL of room temperature CellTitre-Glo2™ (Promega™) was added to each well. • 4. Shook plates for 2 minutes (˜600 rpm) and incubated at room temperature for 15 minutes to allow signal to stabilise. • 5. Read luminescence readout on a plate reader.
Percent viability was calculated for each compound according to equation (2):
[formula] • wherein • RawData is the readout of any cell containing a compound of the invention • TA is the total activity provided by the luminescence readout from DMSO only wells (columns 2 and 24)=100% viability • NSA is the non-specific activity provided by DMSO+TSQ wells (columns 1 and 23)=0% viability
Curve fitting: 10-point titration curves are fitted with the 4-parameter logistic nonlinear regression model and the IC50 reported is the inflection point of the curve.
Analysis: Data was loaded into Dotmatics™ and visualised using the Tibco® Spotfire™ software. 10 points titration curves were fitted with the 4-parameter logistic nonlinear regression model and the IC50 reported reflect the inflection point of the curve for curve fitting.
Assay involving the TSQ cocktail (T: TNF; S: Smac mimetic; Q: Q-VD-OPh): TSQ treatment ensures that cells specifically undergo necroptotic cell death. TNF activates the TNF receptor, Smac mimetic directs the signal away from proinflammatory signaling and toward the RIP1/RIP3-mediated cell death pathways, and Q-VD-OPh ensures that the apoptotic response is blocked leaving only the programmed necrosis response. The compounds' activity (solution in DMSO) tested in this TSQ-induced assay was evaluated by determining the number of viable cells in culture by measuring the amount of ATP present as measured by CelltiterGlo.

U937 cells = assay: Counter screen: cell viability without TSQ cocktail (off-target effect); design: species or system human; settings: Homo sapiens, U-937, Table 38, read-out: Off-target effect (IC50 cell-based assay)
Description: Counter screen: In parallel, all compounds were tested for their ability to affect cell viability. The same U937 cells were treated with compound in DMSO without the TSQ cocktail. This counter screen enabled evaluation of off-target effects. In this case, cell viability was measured by CelltiterGlo.

MLKL (full length) = MLKL (full length) (Homo sapiens (Human), UniProt Q8NB16); assay: KINOMEscan binding assay, MLKL (full length); settings: Table 36
Sequence of MLKL (full length) (Q8NB16 whole entry): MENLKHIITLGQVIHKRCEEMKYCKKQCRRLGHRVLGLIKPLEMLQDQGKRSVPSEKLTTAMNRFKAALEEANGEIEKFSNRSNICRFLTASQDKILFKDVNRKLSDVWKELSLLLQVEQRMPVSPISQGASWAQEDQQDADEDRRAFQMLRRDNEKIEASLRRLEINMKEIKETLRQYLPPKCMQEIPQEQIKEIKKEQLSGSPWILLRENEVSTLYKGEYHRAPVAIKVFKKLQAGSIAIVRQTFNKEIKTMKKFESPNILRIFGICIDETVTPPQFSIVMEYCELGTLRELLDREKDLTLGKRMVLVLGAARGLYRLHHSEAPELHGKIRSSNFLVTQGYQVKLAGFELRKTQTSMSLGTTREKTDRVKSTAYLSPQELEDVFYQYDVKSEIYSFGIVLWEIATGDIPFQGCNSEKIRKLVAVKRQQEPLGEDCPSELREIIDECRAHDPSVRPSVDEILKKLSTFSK
Description: Kinase assays. For most assays, kinase-tagged T7 phage strains were grown in parallel in 24-well blocks in an E. coli host derived from the BL21 strain. E. coli were grown to log-phase and infected with T7 phage from a frozen stock (multiplicity of infection=0.4) and incubated with shaking at 32° C. until lysis (90-150 minutes).
The Hill Slope was set to −1.

Structure (SMILES) | pKd (MLKL (full length)) | pIC50 [1] | pIC50 (U937 cells)
Cc1ncsc1-c1ccc(CNC(=O)[C@@H]2C[C@@H](O)CN2C(=O)[C@@H](NC(=O)CCCn2ccc(Nc3[nH]nc(-c4ccc(NS(=O)(=O)C(F)F)c(O[C@@H](C)c5ccc(F)cc5)c4)c3C(N)=O)n2)C(C)(C)C)cc1 [Compound 1033, 3-[4-(difluoromethanesulfonamido)-3-[(1S)-1-(4-fluorophenyl)ethoxy]phenyl]-5-{[1-(3-{[(2S)-1-[(2S,4R)-4-hydroxy-2-({[4-(4-methyl-1,3-thiazol-5-yl)phenyl]methyl}carbamoyl)pyrrolidin-1-yl]-3,3-dimethyl-1-oxobutan-2-yl]carbamoyl}propyl)-1H-pyrazol-3-yl]amino}-1H-pyrazole-4-carboxamide] | > 8.00 | 5.00 to 6.00 | < 5.00
Cc1ncsc1-c1ccc(CNC(=O)[C@@H]2C[C@@H](O)CN2C(=O)[C@@H](NC(=O)CCCCOc2cc(Nc3[nH]nc(-c4ccc(NS(=O)(=O)C(F)F)cc4)c3C(N)=O)ccn2)C(C)(C)C)cc1 [Compound 1017, 3-[4-(difluoromethanesulfonamido)phenyl]-5-{[2-(4-{[(2S)-1-[(2S,4R)-4-hydroxy-2-({[4-(4-methyl-1,3-thiazol-5-yl)phenyl]methyl}carbamoyl)pyrrolidin-1-yl]-3,3-dimethyl-1-oxobutan-2-yl]carbamoyl}butoxy)pyridin-4-yl]amino}-1H-pyrazole-4-carboxamide] | > 8.00 | 5.00 to 6.00 | < 5.00
CCS(=O)(=O)Nc1ccc(-c2n[nH]c(Nc3ccnc(OCCCCC(=O)N[C@H](C(=O)N4C[C@@H](O)C[C@H]4C(=O)NCc4ccc(-c5scnc5C)cc4)C(C)(C)C)c3)c2C(N)=O)cc1 [Compound 1014, 3-(4-ethanesulfonamidophenyl)-5-{[2-(4-{[(2S)-1-[(2S,4S)-4-hydroxy-2-({[4-(4-methyl-1,3-thiazol-5-yl)phenyl]methyl}carbamoyl)pyrrolidin-1-yl]-3,3-dimethyl-1-oxobutan-2-yl]carbamoyl}butoxy)pyridin-4-yl]amino}-1H-pyrazole-4-carboxamide] | > 8.00 | < 5.00 | < 5.00
CCS(=O)(=O)Nc1ccc(-c2n[nH]c(Nc3ccnc(OCCOCCOCCOCCOCCOCC(=O)N[C@H](C(=O)N4C[C@H](O)C[C@H]4C(=O)NCc4ccc(-c5scnc5C)cc4)C(C)(C)C)c3)c2C(N)=O)cc1 [Compound 1008, 3-(4-ethanesulfonamidophenyl)-5-({2-[(1-{[(2S)-1-[(2S,4R)-4-hydroxy-2-({[4-(4-methyl-1,3-thiazol-5-yl)phenyl]methyl}carbamoyl)pyrrolidin-1-yl]-3,3-dimethyl-1-oxobutan-2-yl]carbamoyl}-2,5,8,11,14-pentaoxahexadecan-16-yl)oxy]pyridin-4-yl}amino)-1H-pyrazole-4-carboxamide] | > 8.00 | < 5.00 | < 5.00
CCS(=O)(=O)Nc1ccc(-c2n[nH]c(Nc3cnc(OCCCCC(=O)N[C@H](C(=O)N4C[C@H](O)C[C@H]4C(=O)NCc4ccc(-c5scnc5C)cc4)C(C)(C)C)cn3)c2C(N)=O)cc1 [Compound 1022, 3-(4-ethanesulfonamidophenyl)-5-{[5-(4-{[(2S)-1-[(2S,4R)-4-hydroxy-2-({[4-(4-methyl-1,3-thiazol-5-yl)phenyl]methyl}carbamoyl)pyrrolidin-1-yl]-3,3-dimethyl-1-oxobutan-2-yl]carbamoyl}butoxy)pyrazin-2-yl]amino}-1H-pyrazole-4-carboxamide] | > 8.00 | > 6.00 | < 5.00
Cc1ncsc1-c1ccc(CNC(=O)[C@@H]2C[C@@H](O)CN2C(=O)[C@@H](NC(=O)CCCCOC(=O)c2ccc(Nc3[nH]nc(-c4ccc(NS(=O)(=O)C(F)F)cc4)c3C(N)=O)nc2)C(C)(C)C)cc1 [Compound 1049, 4-{[(2S)-1-[(2S,4R)-4-hydroxy-2-({[4-(4-methyl-1,3-thiazol-5-yl)phenyl]methyl}carbamoyl)pyrrolidine-1-yl]-3,3-dimethyl-1-oxobutan-2-yl]carbamoyl}butyl 6-({4-carbamoyl-3-[4-(difluoromethanesulfonamido)phenyl]-1H-pyrazol-5-yl}amino)pyridine-3-carboxylate] | > 8.00 | 5.00 to 6.00 | < 5.00
CCS(=O)(=O)Nc1ccc(-c2n[nH]c(Nc3ccnc(OCCOCCOCCOCCOCCOCCOCC(=O)N[C@H](C(=O)N4C[C@H](O)C[C@H]4C(=O)NCc4ccc(-c5scnc5C)cc4)C(C)(C)C)c3)c2C(N)=O)cc1 [Compound 1009, 3-(4-ethanesulfonamidophenyl)-5-({2-[(1-{[(2S)-1-[(2S,4R)-4-hydroxy-2-({[4-(4-methyl-1,3-thiazol-5-yl)phenyl]methyl}carbamoyl)pyrrolidin-1-yl]-3,3-dimethyl-1-oxobutan-2-yl]carbamoyl}-2,5,8,11,14,17-hexaoxanonadecan-19-yl)oxy]pyridin-4-yl}amino)-1H-pyrazole-4-carboxamide] | > 8.00 | < 5.00 | < 5.00

Now from value to compound, other results behind:

pKd (MLKL (full length)) | Structure (SMILES) | pIC50 [1] | pIC50 (U937 cells)
6.00 to 8.00 | CCS(=O)(=O)Nc1ccc(-c2n[nH]c(Nc3ccnc(OCCCCCCCCCCCCCC(=O)N[C@H](C(=O)N4C[C@H](O)C[C@H]4C(=O)NCc4ccc(-c5scnc5C)cc4)C(C)(C)C)c3)c2C(N)=O)cc1 [Compound 1018, 3-(4-ethanesulfonamidophenyl)-5-({2-[(13-{[(2S)-1-[(2S,4R)-4-hydroxy-2-({[4-(4-methyl-1,3-thiazol-5-yl)phenyl]methyl}carbamoyl)pyrrolidin-1-yl]-3,3-dimethyl-1-oxobutan-2-yl]carbamoyl}tridecyl)oxy]pyridin-4-yl}amino)-1H-pyrazole-4-carboxamide] | < 5.00 | < 5.00
6.00 to 8.00 | Cc1ncsc1-c1ccc(CNC(=O)[C@@H]2C[C@@H](O)CN2C(=O)[C@@H](NC(=O)CCCCOC(=O)c2ccc(Nc3[nH]nc(-c4ccc(NS(=O)(=O)C(F)F)c(OCc5ccc(F)cc5)c4)c3C(N)=O)nc2)C(C)(C)C)cc1 [Compound 1055, 4-{[(2S)-1-[(2S,4R)-4-hydroxy-2-({[4-(4-methyl-1,3-thiazol-5-yl)phenyl]methyl}carbamoyl)pyrrolidin-1-yl]-3,3-dimethyl-1-oxobutan-2-yl]carbamoyl}butyl 6-({4-carbamoyl-3-[4-(difluoromethanesulfonamido)-3-[(4-fluorophenyl)methoxy]phenyl]-1H-pyrazol-5-yl}amino)pyridine-3-carboxylate] | > 6.00 | < 5.00
4.52 to 6.00 | CCS(=O)(=O)Nc1ccc(-c2n[nH]c(Nc3ccc(C(=O)OCCCCC(=O)N[C@H](C(=O)N4C[C@H](O)C[C@H]4C(=O)NCc4ccc(-c5scnc5C)cc4)C(C)(C)C)cn3)c2C(N)=O)cc1OCc1ccc(F)cc1 [Compound 1052, 4-{[(2S)-1-[(2S,4R)-4-hydroxy-2-{{[4-(4-methyl-1,3-thiazol-5-yl)phenyl]methyl}carbamoyl)pyrrolidin-1-yl]-3,3-dimethyl-1-oxobutan-2-yl]carbamoyl}butyl 6-[(4-carbamoyl-3-{4-ethanesulfonamido-3-[(4-fluorophenyl)methoxy]phenyl}-1H-pyrazol-5-yl)amino]pyridine-3-carboxylate] | < 5.00 | < 5.00
